According to publication PMC2535826, “Cross-Species Differential Plasma Protein Binding of MBX-102/JNJ39659100: A Novel PPAR-γ Agonist” (PPAR Research, 2008):
Where “and” joins values, the source holds several entries; their conditions need not be identical. Identical values can stand only once. Like-named read-outs stand apart in the source and are kept apart here.

Legend:
[1] = Plasma protein binding by equilibrium dialysis, rat plasma; type: in vitro ADME, Sprague Dawley rats; conditions: Sprague Dawley, equilibrium dialysis vs PBS, 37°C, read-out: %Protein Binding ± SD (converted)
Protocol: (§1) Radiolabeled MBX-102 acid was prepared as a 1 mL ethanol solution at a concentration of 50 μM (1 mCi total). […] Final solvent concentrations were 1% of the total volume. Plasma was stored at −20°C. Prior to use, it was thawed and spun at approximately 2000 rpm for 5 minutes to remove any precipitated material. The pH was adjusted to pH 7.4 by careful addition of NaH2PO4. A 1 mL sample of spiked plasma was prepared by direct dilution of [^3H]-MBX-102 acid stock solution into plasma and then added to one side of an equilibrium dialysis chamber. The other chamber was filled with 1 mL of 0.01 M phosphate buffered saline (PBS). The dialysis apparatus was placed in a water bath at 37°C and rotated at 20 rpm. […] Once equilibrium was established, the contents of the cell chambers were removed and analyzed by liquid scintillation counting. The chambers were sampled in triplicate. […] The recovery percentage was found not to vary with MBX-102 acid concentration.

rat and human plasma = assay: Competitive equilibrium dialysis, rat versus human plasma; type: in vitro ADME, Sprague-Dawley rat; conditions: 37°C, n = 5
Protocol: A comparison of the binding to plasma from different species was performed essentially by the method described below. Briefly, [^3H] MBX-102 acid spiked plasma samples were formulated as described above with the exception that pH was not adjusted to 7.4 and the final DMSO concentration was 0.6%. A 1 mL sample of spiked human plasma was applied to one side of the dialysis membrane and 1 mL of spiked animal plasma was applied to the other side. The samples were dialyzed by rotation at 20 rpm for up to 120 hours in a 37°C incubator. The ratio of free drug in plasma was calculated according to the equation: ratio of free drug (animal versus human) = (total cpm in human plasma)/(total cpm in animal plasma).

[2] = target: T1, human PPAR-γ ligand-binding domain (Homo sapiens, UniProt P37231); assay: Lanthascreen TR-FRET NCOR corepressor displacement assay; type: biochemical; conditions: for IC50: 3 experiments, mean ± SD, read-out: IC50 displacement of NCOR corepressor peptide
T1 construct: GST-PPARγ-LBD (5 nM), Tb-labeled anti-GST antibody (5 nM); purchased Invitrogen
T1 sequence (P37231 238-503 limits assumed): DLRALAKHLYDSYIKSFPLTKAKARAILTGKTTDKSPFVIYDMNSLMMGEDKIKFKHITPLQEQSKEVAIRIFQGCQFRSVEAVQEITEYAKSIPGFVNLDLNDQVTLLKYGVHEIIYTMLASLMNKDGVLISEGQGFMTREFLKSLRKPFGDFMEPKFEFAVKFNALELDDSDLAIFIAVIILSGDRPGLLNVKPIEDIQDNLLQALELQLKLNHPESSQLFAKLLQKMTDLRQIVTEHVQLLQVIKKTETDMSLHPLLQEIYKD
Protocol: Assays were performed according to the manufacturer’s instructions. […] Life Science, Lowell, Mass, USA). […] The plate was covered and incubated for 4 hours at room temperature. The time resolved fluorescence resonance energy transfer (TR-FRET) signal was measured using a Pherastar fluorescence counter (BMG labtech, Offenburg, Germany). The ratio of the emission intensity of the acceptor (Fluorescein: λ = 520 nm) divided by the emission intensity of the donor (Tb: λ = 490 nm) was then calculated to determine the degree of NCOR binding. Each measurement was performed in quadruplicate.

[3] = Plasma protein binding by equilibrium dialysis, mouse plasma; type: in vitro ADME, CD-1 mice; conditions: equilibrium dialysis vs PBS, 37°C, read-out: %Protein Binding ± SD (converted)
Protocol: as §1

[4] = tested on: human alpha-1-acid glycoprotein; assay: Equilibrium dialysis binding to purified human alpha-1-acid glycoprotein; type: in vitro ADME; conditions: purified human alpha-1-acid glycoprotein 22.5 μM, data not shown
Protocol: Stock solutions of human serum albumin and alpha-1-acid glycoprotein were prepared in PBS buffer. […] The spiked protein solution (175 μL) was added to one side of an equilibrium dialysis chamber, and an equal volume of PBS buffer was added to the other chamber. Dialysis was allowed to reach equilibrium and the binding to protein was determined by liquid scintillation counting of samples from both chambers as described above.

human serum albumin = target: T2, human serum albumin (Homo sapiens, UniProt P02768); assay: Albumin binding by surface plasmon resonance (SPR), HSA; conditions: for %Bound: converted from KD
T2 construct: purchased Sigma
T2 sequence (P02768 25-609): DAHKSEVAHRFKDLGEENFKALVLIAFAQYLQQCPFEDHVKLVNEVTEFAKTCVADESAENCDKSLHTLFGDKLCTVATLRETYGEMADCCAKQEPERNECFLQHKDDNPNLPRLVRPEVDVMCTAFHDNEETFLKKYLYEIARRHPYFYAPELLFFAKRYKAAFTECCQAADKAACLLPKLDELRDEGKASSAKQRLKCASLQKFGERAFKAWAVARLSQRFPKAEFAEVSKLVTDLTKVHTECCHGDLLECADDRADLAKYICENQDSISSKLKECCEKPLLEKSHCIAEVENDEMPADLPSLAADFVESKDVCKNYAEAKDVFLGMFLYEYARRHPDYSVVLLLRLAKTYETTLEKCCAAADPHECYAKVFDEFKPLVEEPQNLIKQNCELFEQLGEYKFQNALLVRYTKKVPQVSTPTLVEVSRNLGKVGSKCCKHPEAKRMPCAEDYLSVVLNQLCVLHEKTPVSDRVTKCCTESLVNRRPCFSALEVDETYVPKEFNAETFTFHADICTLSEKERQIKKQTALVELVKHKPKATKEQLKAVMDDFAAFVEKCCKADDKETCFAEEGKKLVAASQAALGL
Protocol: The characterization of the binding of MBX-102 acid against human, mouse, and rat albumin was performed using SPR-based biosensors (Biosensor Tools, Salt Lake City, Utah, USA). The assay methods used to assess the binding of MBX-102 acid to human, mouse, and rat albumins have been described previously. Briefly, each albumin was immobilized onto a CM5 sensor chip using standard amine coupling. Immobilization densities were between 10 000 and 13 000 RU. […] Each of the 16 different concentrations was tested in duplicate. […] All binding data were collected at 37°C. The binding response profile of MBX-102 acid over the three different albumin surfaces was evaluated and the binding constants for the high-affinity site were determined using a two-independent-site model. Conversion from KD to %bound was performed as previously described.

Structure (SMILES): O=C(O)[C@H](Oc1cccc(C(F)(F)F)c1)c1ccc(Cl)cc1 (stereo in doubt) [MBX-102 acid]
- fraction unbound at 400 µM ([1]; pH 7.4, MBX-102 acid 400 μM): 0.002
- fraction unbound at 600 µM ([1]; pH 7.4, MBX-102 acid 600 μM): 0.002
- fraction unbound at 1000 µM ([1]; pH 7.4, MBX-102 acid 1000 μM): 0.003
- fraction unbound at 1500 µM ([1]; pH 7.4, MBX-102 acid 1500 μM): 0.002
- fraction unbound at 2000 µM ([1]; pH 7.4, MBX-102 acid 2000 μM): 0.005
- Free Fraction Ratio Rat:Human (rat and human plasma; MBX-102 acid 100 μM): 2.3 ± 0.6
- Free Fraction Ratio Rat:Human (rat and human plasma; MBX-102 acid 300 μM): 2.3 ± 0.6
- Free Fraction Ratio Rat:Human (rat and human plasma; MBX-102 acid 700 μM): 2.0 ± 0.3
- Free Fraction Ratio Rat:Human (rat and human plasma; MBX-102 acid 1000 μM): 1.8 ± 0.2
- Free Fraction Ratio Rat:Human (rat and human plasma; MBX-102 acid 1300 μM): 1.7 ± 0.2
- IC50 ([2]; 0% serum): 11 µM and 10.6 µM
- IC50 ([2]; 10% (v/v) human serum): 98.5 ± 6.6 µM
- IC50 ([2]; 40% (v/v) human serum): 200 ± 6.4 µM
- IC50 ([2]; 40% (v/v) mouse serum): 28.1 ± 2.6 µM
- IC50 ([2]; 40% (v/v) rat serum): 57.9 ± 14.2 µM
- fold shift in the IC50 ([2]; 40% human serum versus no serum): ≤ 19 fold
- FC, IC50 fold change human-to-mouse serum ([2]; 40% serum): 7 and 7.17
- FC, IC50 fold change human-to-rat serum ([2]; 40% serum): 4 and 3.59
- fraction unbound at 400 µM ([3]; CD-1, pH 7.4, MBX-102 acid 400 μM): 0.002
- fraction unbound at 600 µM ([3]; CD-1, pH 7.4, MBX-102 acid 600 μM): 0.003
- fraction unbound at 1000 µM ([3]; CD-1, pH 7.4, MBX-102 acid 1000 μM): 0.005
- fraction unbound at 1500 µM ([3]; CD-1, pH 7.4, MBX-102 acid 1500 μM): 0.002
- fraction unbound at 2000 µM ([3]; CD-1, pH 7.4, MBX-102 acid 2000 μM): 0.005
- binding to human alpha 1-acid glycoprotein [4]: < 5%
- %Bound (human serum albumin): > 98%
- %Bound (human serum albumin; listed as MBX-102): 99.1%
- Kd (human serum albumin; high-affinity site, two-independent-site model, 37°C, pH 7.4): 5.8 µM
